Assay results reported in patent EP4778922A1, “BICYCLIC COMPOUND, AND PREPARATION METHOD THEREFOR AND PHARMACEUTICAL USE THEREOF” (Shanghai Jeyou Pharmaceutical Co., Ltd., priority 2023, dated 2025).
Read-outs that look alike come from different tables or passages of the source.

Columns and labels:
[1] = Mouse pharmacokinetic test; assay type: in vivo, ICR mice; details: plasma; for bioavailability: PO-30mpk vs IV-0.5mpk; for Tmax: read-out: Tmax
Summary of the method: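 Male naive ICR mice (25–30 g, n=3 per route) received a single intravenous or oral dose, with feeding resumed 4 h post-dose. Blood was centrifuged at 4°C, and plasma was stored at -80°C until analysis.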

22RV1 cells = assay: Cell proliferation inhibition assay in 22RV1 cells (CellTiter-Glo, 7 days); assay type: cell-based, human; details: Homo sapiens, 22Rv1, 168 h
Summary of the method: (§1)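 22RV1 cells received compound alone; LNCaP cells were stimulated with 0.2 nM DHT added 1 h after compound. Seeding was 3000 cells/well.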

LNCaP cells = assay: Cell proliferation inhibition assay in LNCaP cells (0.2 nM DHT, CellTiter-Glo, 7 days); assay type: cell-based, human; details: Homo sapiens, LNCaP, 168 h
Summary of the method: as §1

CYP2C9 = target: T1, CYP2C9 (Homo sapiens, UniProt P11712); assay: CYP inhibition assay in human liver microsomes; assay type: in vitro ADME; details: human liver microsomes, NADPH; read-out: CYPs 2C9 (IC50)
T1 construct: co-incubated with human liver microsomes; from tissue; host or cells: human liver microsomes
T1 sequence (P11712 whole entry): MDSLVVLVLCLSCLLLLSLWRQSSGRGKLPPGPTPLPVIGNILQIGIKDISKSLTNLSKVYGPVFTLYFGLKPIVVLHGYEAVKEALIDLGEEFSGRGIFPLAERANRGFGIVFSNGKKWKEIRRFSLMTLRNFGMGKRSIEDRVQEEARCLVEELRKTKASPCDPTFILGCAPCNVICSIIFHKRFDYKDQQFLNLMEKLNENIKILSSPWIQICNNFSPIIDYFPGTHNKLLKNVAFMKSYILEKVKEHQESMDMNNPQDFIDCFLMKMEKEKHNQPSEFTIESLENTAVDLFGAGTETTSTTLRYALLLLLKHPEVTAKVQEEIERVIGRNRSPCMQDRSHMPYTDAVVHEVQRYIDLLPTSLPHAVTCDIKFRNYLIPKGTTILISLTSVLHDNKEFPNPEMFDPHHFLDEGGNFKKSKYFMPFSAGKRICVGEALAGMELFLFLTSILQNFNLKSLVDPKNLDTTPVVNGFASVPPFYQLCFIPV
Description: (§2) Test Example 3: CYP Inhibition Assay
(§3) An in vitro assay system was used to evaluate the effects of the compounds on the activities of several human liver microsomal cytochrome P450 (CYP) isozymes (CYP1A2, CYP2C9, CYP2D6, CYP3A4 (testosterone/midazolam), CYP2C19, and CYP2C8). Specific probe substrates for CYP450 isozymes were co-incubated with human liver microsomes and the compound at various concentrations (0, 0.0300, 0.100, 0.300, 1.00, 3.00, 10.0 µM). The reaction was initiated by adding the coenzyme NADPH. After the reaction was completed, the samples were processed, and the metabolites generated from the probe substrates were detected by liquid chromatography-tandem mass spectrometry (LC-MS/MS). Based on the resulting dose-response curves, the IC50 values of the test compounds for the probe substrate reactions catalyzed by each CYP isozyme were calculated.

CYP2C8 = target: T2, CYP2C8 (Homo sapiens, UniProt P10632); assay: CYP inhibition assay in human liver microsomes; assay type: in vitro ADME; details: human liver microsomes, NADPH; read-out: CYPs 2C8 (IC50)
T2 construct: co-incubated with human liver microsomes; from tissue; host or cells: human liver microsomes
T2 sequence (P10632 1-490): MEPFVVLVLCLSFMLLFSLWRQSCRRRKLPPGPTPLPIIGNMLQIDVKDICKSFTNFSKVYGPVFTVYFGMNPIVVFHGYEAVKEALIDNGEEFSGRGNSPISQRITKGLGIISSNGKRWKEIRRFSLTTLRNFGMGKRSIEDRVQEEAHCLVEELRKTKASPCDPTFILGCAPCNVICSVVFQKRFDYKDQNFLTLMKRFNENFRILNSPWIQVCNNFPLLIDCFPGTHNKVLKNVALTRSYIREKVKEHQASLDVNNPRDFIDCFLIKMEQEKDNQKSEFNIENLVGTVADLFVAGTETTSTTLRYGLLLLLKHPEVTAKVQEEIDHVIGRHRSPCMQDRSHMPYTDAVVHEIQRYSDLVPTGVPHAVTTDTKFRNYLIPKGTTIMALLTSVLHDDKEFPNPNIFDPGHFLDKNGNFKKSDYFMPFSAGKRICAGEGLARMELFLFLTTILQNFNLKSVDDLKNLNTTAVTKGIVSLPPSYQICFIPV
Description: as §2, §3

[2] = target: T3, CYP3A4 (testosterone/midazolam) (Homo sapiens, UniProt P08684); assay: CYP inhibition assay in human liver microsomes; assay type: in vitro ADME
T3 construct: co-incubated with human liver microsomes; from tissue; host or cells: human liver microsomes
T3 sequence (P08684 whole entry): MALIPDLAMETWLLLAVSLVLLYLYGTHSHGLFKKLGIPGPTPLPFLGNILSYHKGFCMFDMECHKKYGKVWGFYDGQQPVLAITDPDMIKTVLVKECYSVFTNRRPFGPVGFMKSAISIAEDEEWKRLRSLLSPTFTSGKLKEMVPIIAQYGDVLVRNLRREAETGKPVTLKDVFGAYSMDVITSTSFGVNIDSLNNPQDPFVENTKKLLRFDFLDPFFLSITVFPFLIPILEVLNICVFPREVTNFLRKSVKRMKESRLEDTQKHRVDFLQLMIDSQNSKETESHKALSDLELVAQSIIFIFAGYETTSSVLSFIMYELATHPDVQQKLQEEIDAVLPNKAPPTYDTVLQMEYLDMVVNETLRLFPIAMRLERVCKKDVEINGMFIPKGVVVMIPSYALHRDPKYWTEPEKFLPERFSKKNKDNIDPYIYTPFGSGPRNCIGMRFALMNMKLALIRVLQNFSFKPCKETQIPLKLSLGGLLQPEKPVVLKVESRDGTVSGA
Description: as §2, §3

CYP2C19 = target: T4, CYP2C19 (Homo sapiens, UniProt P33261); assay: CYP inhibition assay in human liver microsomes; assay type: in vitro ADME; details: human liver microsomes, NADPH; read-out: CYPs 2C19 (IC50)
T4 construct: co-incubated with human liver microsomes; from tissue; host or cells: human liver microsomes
T4 sequence (P33261 whole entry): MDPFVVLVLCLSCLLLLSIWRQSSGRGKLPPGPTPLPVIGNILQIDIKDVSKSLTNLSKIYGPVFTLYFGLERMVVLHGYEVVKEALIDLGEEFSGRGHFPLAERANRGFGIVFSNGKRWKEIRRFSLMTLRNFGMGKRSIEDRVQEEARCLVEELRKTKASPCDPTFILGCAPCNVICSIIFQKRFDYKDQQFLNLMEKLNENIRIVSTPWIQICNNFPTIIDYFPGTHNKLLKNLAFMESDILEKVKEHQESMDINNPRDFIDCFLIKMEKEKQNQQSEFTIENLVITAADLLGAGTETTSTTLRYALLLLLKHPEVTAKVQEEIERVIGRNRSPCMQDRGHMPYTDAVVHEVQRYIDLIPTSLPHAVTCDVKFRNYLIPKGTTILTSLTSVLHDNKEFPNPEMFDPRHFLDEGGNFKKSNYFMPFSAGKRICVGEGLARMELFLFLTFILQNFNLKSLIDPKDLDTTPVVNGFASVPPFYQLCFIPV
Description: as §2, §3

[3] = probe substrate midazolam, read-out: CYPs 3A4 (Midazolam) (IC50)
[4] = probe substrate testosterone, read-out: CYPs 3A4 (Testosterone) (IC50)

Row | SMILES | C0 ([1]; 0.5 mg/kg, IV-0.5mpk) [ng/mL] | clearance ([1]; 0.5 mg/kg, IV-0.5mpk) [mL/min/kg] | bioavailability ([1]; 30 mg/kg) [%] | AUC(0-inf) ([1]; iv, 0.5 mg/kg, IV-0.5mpk) [µg·h/mL] | half-life ([1]; iv, 0.5 mg/kg, IV-0.5mpk) [h] | AUC(0-inf) ([1]; po, 30 mg/kg, PO-30mpk) [µg·h/mL] | Cmax ([1]; po, 30 mg/kg, PO-30mpk) [ng/mL] | half-life ([1]; po, 30 mg/kg, PO-30mpk) [h] | Tmax ([1]; po, 30 mg/kg, PO-30mpk) [h] | IC50 (22RV1 cells) [µM] | IC50 (LNCaP cells) [µM] | IC50 (CYP2C9) [µM] | IC50 (CYP2C8) [µM] | IC50 [2, 3] [µM] | IC50 [2, 4] [µM] | IC50 (CYP2C19) [µM]
1 | CC(C)(c1ccc(-c2ccc(OCc3ccnc(N4CC(S(C)(=O)=O)C4)n3)cn2)cc1)c1cc(Cl)c(OCCCl)c(C#N)c1 [Compound 85] | 3110 | 0.63 | 58.3 | 13.7 | 6.12 | 480 | 43000 | 8.9 | 2 | 0.34 | 0.33 | 6.5 | > 10 | > 10 | > 10 | > 10
2 | CC(C)(c1ccc(-c2ccc(OCc3ccnc(N4CCC(S(C)(=O)=O)CC4)n3)cc2)cc1)c1cc(Cl)c(OCCCl)c(C#N)c1 [Compound 94] |  |  |  |  |  |  |  |  |  | 0.49 | 0.79 | > 10 | > 10 | > 10 | > 10 | > 10
3 | CC(C)(c1ccc(-c2ccc(C#Cc3cnc(P(C)(C)=O)nc3)cc2)cc1)c1cc(Cl)c(OCCCl)c(C#N)c1 [Compound 109] | 1580 | 0.56 | 93.6 | 15.5 | 13.8 | 870 | 29200 | 27.1 | 4 | 0.12 | 0.57 | > 10 | 8.8 | > 10 | > 10 | > 10
4 | CC(C)(c1ccc(-c2ccc(OCC34CC(c5cnc(P(C)(C)=O)nc5)(C3)C4)cc2)cc1)c1cc(Cl)c(OCCCl)c(C#N)c1 [Compound 320] |  |  |  |  |  |  |  |  |  | 0.079 | 0.26 | > 10 | 9.1 | > 10 | > 10 | > 10
5 | CC(C)(c1ccc(-c2ncc(OCc3ccnc(N4CC(S(C)(=O)=O)C4)n3)cn2)cc1)c1cc(Cl)c(OCCCl)c(C#N)c1 [Compound 379] |  |  |  |  |  |  |  |  |  | 0.68 | 0.12 | > 10 | > 10 | > 10 | > 10 | > 10
6 | CC(C)(c1ccc(-c2cnc(OCc3ccc(-c4ccc(P(C)(C)=O)nn4)cc3)cn2)cc1)c1cc(Cl)c(OCCCl)c(C#N)c1 [Compound 380] |  |  |  |  |  |  |  |  |  | 0.23 | 0.15 | > 10 | > 10 | > 10 | > 10 | > 10
7 | CC(C)(c1ccc(-c2cnc(OCc3ccc(-c4cnc(P(C)(C)=O)cn4)cc3)cn2)cc1)c1cc(Cl)c(OCCCl)c(C#N)c1 [Compound 381] |  |  |  |  |  |  |  |  |  | 0.35 | 0.11 | 5.8 | > 10 | > 10 | > 10 | > 10
8 | CC(C)(c1ccc(-c2cnc(OCc3ccnc(N4CC(S(=O)(=O)C5CC5)C4)n3)cn2)cc1)c1cc(Cl)c(OCCCl)c(C#N)c1 [Compound 387] |  |  |  |  |  |  |  |  |  | 0.22 | 0.05 | 1.9 | > 10 | > 10 | > 10 | > 10
9 | CC(C)(c1ccc(-c2cnc(OCc3ccnc(N4CC5(C4)CS(=N)(=O)C5)n3)cn2)cc1)c1cc(Cl)c(OCCCl)c(C#N)c1 [Compound 391] |  |  |  |  |  |  |  |  |  | 0.46 | 0.091 | 10 | > 10 | > 10 | > 10 | > 10
10 | CC(C)(c1ccc(-c2ncc(OCc3cnc(-c4cnc(P(C)(C)=O)nc4)cn3)cn2)cc1)c1cc(Cl)c(OCCCl)c(C#N)c1 [Compound 403] |  |  |  |  |  |  |  |  |  |  | 0.26 | > 10 | 1.3 | > 10 | > 10 | > 10
